This is an account of results in patent US11926613B2, “Kinase inhibitors for the treatment of central and peripheral nervous system disorders” (UNIVERSITY OF MIAMI, priority 2017, dated 2024).

The test system of test [1] is neurons from hippocampi of E18 rat embryos. Briefly: Neurite growth length (% NTL) in cultured E18 rat hippocampal neurons, 9-point dose response, 48 hours. Format: cell-based. The settings on record: Rattus norvegicus, Neuron, 48 h; for activity at 0.078 µM: 78 nM; for activity at 0.156 µM: 156 nM; for activity at 0.312 µM: 312 nM; for activity at 0.625 µM: 625 nM. The method, boiled down: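 % NTL comes from automated neurite tracing of βIII-tubulin-stained cells, with 200–300 or more neurons per condition. Compounds were given in a 9-point dilution series (20 μM to 0.078125 μM) for 48 h. Cells were trypsin-dissociated E18 rat hippocampal neurons plated at 1500/well on poly-D-lysine.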

Test [2] relates to Primary Neurons. Briefly: HCS neurite outgrowth assay (High Content Screening with Primary Neurons). The settings on record: Primary neuron. Format: cell-based.

One may read the EC50 as the midpoint of the concentration-response curve.

Some results are limits rather than exact numbers.

Regarding `COc1ccc(O)c(C(=O)c2ccc(C(=O)N[C@@H]3CNC[C@H]3NC(=O)c3ccc4cn[nH]c4c3)cc2)c1F` [Example A57, N-[(3R,4R)-4-[4-(2-fluoro-6-hydroxy-3-methoxybenzoyl)benzamido]pyrrolidin-3-yl]-1H-indazole-6-carboxamide], in test [1], the activity at 0.078 µM came to 92.2%, the activity at 0.156 µM amounted to 97.8%, the activity at 0.312 µM was found to be 95.1% and the activity at 0.625 µM turned out to be 93.9%. Moreover, in test [1], the activity at 1.25 µM came out at 97.3%, the activity at 2.5 µM worked out at 93.5%, the activity at 5 µM amounted to 105% and the activity at 10 µM amounted to 107%. Besides, in test [1], the activity at 20 µM is 111%. For the same compound, the half-maximal effective concentration (EC50) in test [2] was > 20 µM.

`COc1ccc(O)c(C(=O)c2ccc(C(=O)N[C@@H]3CNC[C@H]3NC(=O)c3ccc4[nH]nnc4c3)cc2)c1F` [Example A58, N-[(3R,4R)-4-[4-(2-fluoro-6-hydroxy-3-methoxybenzoyl)benzamido]pyrrolidin-3-yl]-1H-1,2,3-benzotriazole-5-carboxamide]: in test [1], the activity at 0.078 µM is 88.3%, the activity at 0.156 µM is 87.6%, the activity at 0.312 µM worked out at 79.3% and the activity at 0.625 µM came out at 75.7%. Moreover, in test [1], the activity at 1.25 µM is 76.3%, the activity at 2.5 µM was determined as 84.8%, the activity at 5 µM turned out to be 85.3% and the activity at 10 µM came to 89.5%. Besides, the activity at 20 µM in test [1] was 88.6%. The compound further registered an EC50 in test [2] of 5.27 µM.

Regarding `COc1ccc(O)c(C(O)c2ccc(C(=O)N[C@@H]3CNC[C@H]3NC(=O)c3ccncc3)cc2)c1F` (stereo partly drawn) [Example A59, N-[(3R,4R)-4-{4-[(2-fluoro-6-hydroxy-3-methoxyphenyl)(hydroxy)methyl]benzamido}pyrrolidin-3-yl]pyridine-4-carboxamide], in test [1], the activity at 0.078 µM turned out to be 91.9%, the activity at 0.156 µM was 82.8%, the activity at 0.312 µM was 73.6% and the activity at 0.625 µM was found to be 82.3%. In addition, in test [1], the activity at 1.25 µM came out at 76.7%, the activity at 2.5 µM came to 91.2%, the activity at 5 µM worked out at 95.4% and the activity at 10 µM worked out at 111%. Further, the activity at 20 µM in test [1] is 106%. The compound further came in with an EC50 in test [2] of 7.13 µM.

With `Cc1cc(C(=O)N[C@@H]2CNC[C@H]2NC(=O)c2ccncc2)ccc1C(=O)c1ccccc1O` [Example A64, N-[(3R,4R)-4-[4-(2-hydroxybenzoyl)-3-methylbenzamido]pyrrolidin-3-yl]pyridine-4-carboxamide], in test [1], the activity at 0.078 µM is 91.3%, the activity at 0.156 µM came out at 99.8%, the activity at 0.312 µM was 107% and the activity at 0.625 µM was 105%. In test [1], the activity at 1.25 µM was 116%, the activity at 2.5 µM is 129%, the activity at 5 µM turned out to be 124% and the activity at 10 µM turned out to be 121%. Besides, the activity at 20 µM in test [1] was 126%. In addition, in test [2], the response was half-maximal at 0.593 µM (EC50).

Consider `O=C(N[C@@H]1CNC[C@H]1NC(=O)c1ccc(C(=O)c2ccccc2O)cc1Cl)c1ccncc1` [Example A65, N-[(3R,4R)-4-[2-chloro-4-(2-hydroxybenzoyl)benzamido]pyrrolidin-3-yl]pyridine-4-carboxamide], for which, in test [1], the activity at 0.078 µM came to 108%, the activity at 0.156 µM was determined as 117%, the activity at 0.312 µM is 123% and the activity at 0.625 µM came out at 113%. Also, in test [1], the activity at 1.25 µM was determined as 126%, the activity at 2.5 µM was 129%, the activity at 5 µM was 128% and the activity at 10 µM was found to be 150%. In test [1], the activity at 20 µM was found to be 161%. Besides, in test [2], a half-maximal effect (EC50) was put at 7.11 µM.
